Data: US8906952B2, “Indole derivative or pharmaceutically acceptable salt thereof, preparation method thereof, and pharmaceutical composition for preventing or treating metabolic diseases containing same as active ingredient” (Korea Research Institute of Bioscience and Biotechnology, priority 2011, dated 2014)

Test system: HepG2 cells
Assay: DGAT inhibitory effect in HepG2 cells (triglyceride production from [14C]glycerol)
Type: cell-based
Conditions: Homo sapiens; for activity at 10 µM: HepG2, 6 h, DMSO control = 100, read-out: Triglyceride production rate (%)/HepG2 cells at 10 μM; for inhibition at 10 µM: HepG2, 10 μM, read-out: biosynthesis inhibition rate of triglyceride
Method: To investigate inhibition effect on intracellular DGAT enzyme activity of the compounds obtained in Examples 1-51, intracellular DGAT enzyme activity was measured using human-derived liver HepG2 cells.
HepG2 cells were purchased from ATCC, and cultured in 37° C., 5% CO2 incubator including minimum essential medium (2 mM L-glutamine, earle's BSS adjusted to contain 1.5 g/L sodium bicarbonate, 0.1 mM nonessential amino acids, and 1 mM sodium pyruvate) added with 10% fetal bovine serum (FBS) and 1% antibiotic (100 U/ml penicillin and 100 µg/ml streptomycin).
The intracellular DGAT enzyme activity was measured based on an amount of triglycerides produced in the cultured HepG2 cells, by adding 10 μM enzyme inhibitor compounds obtained in Examples 1-51, respectively, and then determining the effect of the enzyme inhibitors according to reduction rate of the triglyceride production.
Specifically, cells were seeded 1×10^6 cell/ml per well of the 24 well culture plate, and 24 hours after incubation, medium was exchanged with FBS-free DMEM medium, and sample of 0.2 mCi [^14C]glycerol (Amersham) was added as substrate, and the reaction was allowed to occur for 6 hr. The induced production of triglyceride was catalyzed by the DGAT enzyme, and DGAT enzyme activity was determined based on the amount of production of triglyceride which was measured based on the amount of radiation. The sample was dissolved in dimethylsulfoxide (DMSO) to be used, and the control group in the triglyceride production reaction was reacted with dimethylsulfoxide only (i.e., without sample), and the amount of the triglyceride production rate was set to 100.
After the reaction completed, the substrate [^14C]glycerol which was either not absorbed into cells or not used for the reaction, were removed with phosphate-buffer-saline (PBS), and 0.5 ml extraction solvent (hexane:isopropanol=3:2, v:v) was added to extract full fat containing triglycerides. With 0.5 ml extraction solvent, extract was obtained two times for 30 min each, and 1 ml of the extract was concentrated with nitrogen gas. After removing the extraction solvent, the total fat was dissolved in organic solvent (chloroform:methanol=2:1) and spotted with thin-layer chromatography (TLC:silica gel 60F254, thickness: 0.5 mm, Merck) on the developing solvent (hexane:diethyl ether:acetic acid=80:20:1, v: v: v). Triglycerides (Rf value: 0.4) were isolated on TLC, and after exposing the TLC plate to the film with photosensitivity to radiation energy (imaging plate' Fujifilm, BMS-MS 2040) for 3 hr, the amount of [^14C] radiation of triglyceride was measured by imaging analysis (FLA 7000). The remaining cells after the extraction were dissolved in 0.3 ml 0.1 N sodium hydroxide for use in the measurement of protein concentration of the cells used for the reaction.
The experimental errors among the respective experimental groups were compensated with the experimental value which was obtained by dividing the measured radiation of triglyceride by protein concentration, and the production rate of triglyceride according to the respective compounds of Examples 1-51 are tabulated below.

Compound | activity at 10 µM [%] | inhibition at 10 µM [%]
CC(C)N(NC(=O)c1ccc(OCCN2CCOCC2)cc1)C(=O)/C=C/c1cn(C(=O)OC(C)(C)C)c2ccccc12 [Example 9, (E)-tert-butyl 3-(3-(1-isopropyl-2-(4-(2-morpholinoethoxy)benzoyl)hydrazinyl)-3-oxoprop-1-enyl)-1H-indole-1-carboxylate] | 83.8 | –
CC(=O)n1cc(/C=C/C(=O)N(NC(=O)c2ccccc2)C(C)C)c2ccccc21 [Example 30, (E)-N′-(3-(1-acetyl-1H-indol-3-yl)acryloyl)-N′-isopropylbenzohydrazide] | 89 | –
CC(C)N(NC(=O)c1ccccc1)C(=O)/C=C/c1cn(C(=O)C(C)(C)C)c2ccccc12 [Example 31, (E)-N′-isopropyl-N′-(3-(1-pivaloyl-1H-indol-3-yl)acryloyl)benzohydrazide] | 93.3 | –
CC(C)N(NC(=O)c1cccc(OCCN2CCOCC2)c1)C(=O)/C=C/c1cn(C(=O)OC(C)(C)C)c2ccccc12 [Example 8, (E)-tert-butyl 3-(3-(1-isopropyl-2-(3-(2-morpholinoethoxy)benzoyl)hydrazinyl)-3-oxoprop-1-enyl)-1H-indole-1-carboxylate] | 85.2 | –
CC(C)N(NC(=O)c1ccccc1)C(=O)CCc1cn(C(=O)OC(C)(C)C)c2ccccc12 [Example 24, tert-butyl 3-(3-(2-benzoyl-1-isopropylhydrazinyl)-3-oxopropyl)-1H-indole-1-carboxylate] | 60.7 | 30 to 40
CC(C)N(NC(=O)c1ccc(Br)cc1)C(=O)/C=C/c1cn(C(=O)OC(C)(C)C)c2ccccc12 [Example 13, (E)-tert-butyl 3-(3-(2-(4-bromobenzoyl)-1-isopropylhydrazinyl)-3-oxoprop-1-enyl)-1H-indole-1-carboxylate] | 87.1 | –
CC(C)N(NC(=O)c1ccccc1)C(=O)CCc1c[nH]c2ccccc12 [Example 23, N′-(3-(1H-indol-3-yl)propanoyl)-N′-isopropylbenzohydrazide] | 87.7 | –
CC(C)N(NC(=O)c1cccc(OCC(N)=O)c1)C(=O)/C=C/c1cn(C(=O)OC(C)(C)C)c2ccccc12 [Example 20, (E)-tert-butyl 3-(3-(2-(3-(2-amino-2-oxoethoxy)benzoyl)-1-isopropylhydrazinyl)-3-oxoprop-1-enyl)-1H-indole-1-carboxylate] | 109 | –
CC(C)N(NC(=O)c1cccc(F)c1)C(=O)/C=C/c1cn(C(=O)OC(C)(C)C)c2ccccc12 [Example 15, (E)-tert-butyl 3-(3-(2-(3-fluorobenzoyl)-1-isopropylhydrazinyl)-3-oxoprop-1-enyl)-1H-indole-1-carboxylate] | 71.2 | 20 to 30
CC(C)N(NC(=O)c1ccccc1)C(=O)/C=C/c1c[nH]c2ccccc12 [Example 22, (E)-N′-(3-(1H-indol-3-yl)acryloyl)-N′-isopropylbenzohydrazide] | 116 | –
CC(C)N(NC(=O)c1ccccc1)C(=O)/C=C/c1cn(C(=O)CC(C)(C)C)c2ccccc12 [Example 33, (E)-N′-(3-(1-(3,3-dimethylbutanoyl)-1H-indol-3-yl)acryloyl)-N′-isopropylbenzohydrazide] | 78.2 | 20 to 30
CC(C)N(NC(=O)c1ccccc1)C(=O)/C=C/c1cn(C(=O)c2ccccc2)c2ccccc12 [Example 32, (E)-N′-(3-(1-benzoyl-1H-indol-3-yl)acryloyl)-N′-isopropylbenzohydrazide] | 91.4 | –
CC(C)N(NC(=O)c1ccccn1)C(=O)/C=C/c1cn(C(=O)OC(C)(C)C)c2ccccc12 [Example 2, (E)-tert-butyl 3-(3-(1-isopropyl-2-picolinoylhydrazinyl)-3-oxoprop-1-enyl)-1H-indole-1-carboxylate] | 64.2 | 30 to 40
CC(C)(C)OC(=O)n1cc(/C=C/C(=O)NNC(=O)c2ccccc2)c2ccccc21 [Example 16, (E)-tert-butyl 3-(3-(2-benzoylhydrazinyl)-3-oxoprop-1-enyl)-1H-indole-1-carboxylate] | 61.7 | 30 to 40
CC(C)N(NC(=O)c1cccnc1)C(=O)/C=C/c1cn(C(=O)OC(C)(C)C)c2ccccc12 [Example 3, (E)-tert-butyl 3-(3-(1-isopropyl-2-nicotinoylhydrazinyl)-3-oxoprop-1-enyl)-1H-indole-1-carboxylate] | 66.8 | 30 to 40
COC(=O)COc1cccc(C(=O)NN(C(=O)/C=C/c2cn(C(=O)OC(C)(C)C)c3ccccc23)C(C)C)c1 [Example 18, (E)-tert-butyl 3-(3-(1-isopropyl-2-(3-(2-methoxy-2-oxoethoxy)benzoyl)hydrazinyl)-3-oxoprop-1-enyl)-1H-indole-1-carboxylate] | 102 | –
CC(C)N(NC(=O)c1ccc(Cl)cc1)C(=O)/C=C/c1cn(C(=O)OC(C)(C)C)c2ccccc12 [Example 14, (E)-tert-butyl 3-(3-(2-(4-chlorobenzoyl)-1-isopropylhydrazinyl)-3-oxoprop-1-enyl)-1H-indole-1-carboxylate] | 84.4 | –
CC(C)(C)OC(=O)n1cc(/C=C/C(=O)NNS(=O)(=O)c2ccccc2)c2ccccc21 [Example 17, (E)-tert-butyl 3-(3-oxo-3-(2-(phenylsulfonyl)hydrazinyl)prop-1-enyl)-1H-indole-1-carboxylate] | 81.7 | –
COc1cccc(C(=O)NN(C(=O)/C=C/c2cn(C(=O)OC(C)(C)C)c3ccccc23)C(C)C)c1 [Example 6, (E)-tert-butyl 3-(3-(1-isopropyl-2-(3-methoxybenzoyl)hydrazinyl)-3-oxoprop-1-enyl)-1H-indole-1-carboxylate] | 74.8 | 20 to 30
CC(C)N(NC(=O)c1ccccc1)C(=O)/C=C/c1cn(C2CC2)c2ccccc12 [Example 29, (E)-N′-(3-(1-cyclopropyl-1H-indol-3-yl)acryloyl)-N′-isopropylbenzohydrazide] | 59.6 | 30 to 40
COCCOc1cccc(C(=O)NN(C(=O)/C=C/c2cn(C(=O)OC(C)(C)C)c3ccccc23)C(C)C)c1 [Example 10, (E)-tert-butyl 3-(3-(1-isopropyl-2-(3-(2-methoxyethoxy)benzoyl)hydrazinyl)-3-oxoprop-1-enyl)-1H-indole-1-carboxylate] | 62 | 30 to 40
CC(C)N(NC(=O)c1cccc(OCC(=O)O)c1)C(=O)/C=C/c1cn(C(=O)OC(C)(C)C)c2ccccc12 [Example 19, (E)-2-(3-(2-(3-(1-(tert-butoxycarbonyl)-1H-indol-3-yl)acryloyl)-2-isopropylhydrazinecarbonyl)phenoxy)acetic acid] | 103 | –
COc1ccc(C(=O)NN(C(=O)/C=C/c2cn(C(=O)OC(C)(C)C)c3ccccc23)C(C)C)cc1 [Example 7, (E)-tert-butyl 3-(3-(1-isopropyl-2-(4-methoxybenzoyl)hydrazinyl)-3-oxoprop-1-enyl)-1H-indole-1-carboxylate] | 85.8 | –
CC(C)N(NC(=O)c1ccccc1)C(=O)/C=C/c1cn(CC2CC2)c2ccccc12 [Example 28, (E)-N′-(3-(1-(cyclopropylmethyl)-1H-indol-3-yl)acryloyl)-N′-isopropylbenzohydrazide] | 64.4 | 30 to 40
CC(C)N(NC(=O)c1cccc(O)c1)C(=O)/C=C/c1cn(C(=O)OC(C)(C)C)c2ccccc12 [Example 4, (E)-tert-butyl 3-(3-(2-(3-hydroxybenzoyl)-1-isopropylhydrazinyl)-3-oxoprop-1-enyl)-1H-indole-1-carboxylate] | 86.7 | –
CC(C)N(NC(=O)c1cccc(Br)c1)C(=O)/C=C/c1cn(C(=O)OC(C)(C)C)c2ccccc12 [Example 12, (E)-tert-butyl 3-(3-(2-(3-bromobenzoyl)-1-isopropylhydrazinyl)-3-oxoprop-1-enyl)-1H-indole-1-carboxylate] | 93.5 | –
CC(C)N(NC(=O)c1ccccc1)C(=O)/C=C/c1cn(Cc2ccccc2)c2ccccc12 [Example 26, (E)-N′-(3-(1-benzyl-1H-indol-3-yl)acryloyl)-N′-isopropylbenzohydrazide] | 59.8 | 30 to 40
